Reference: ChEMBL document CHEMBL1148518, “Synthesis and SAR of alpha-sulfonylcarboxylic acids as potent matrix metalloproteinase inhibitors” (Bioorg Med Chem Lett, 2006)

Experiments:
[1] = target: 72 kDa type IV collagenase (Homo sapiens, UniProt P08253)
[2] = target: Matrix metalloproteinase-9 (Homo sapiens, UniProt P14780)
[3] = (§1) Volume of distribution in rat at 0.5 mg/kg, iv; assay type: ADME, organism-based; design: dose 0.5 mg/kg, route intravenous; details: in vivo, read-out: Vss
[4] = Clearance in rat at 0.5 mg/kg, iv; assay type: ADME, organism-based; design: dose 0.5 mg/kg, route intravenous; details: in vivo
[5] = Metabolic stability in human liver microsomes; assay type: ADME, Microsome
[6] = Initial concentration in rat at 0.5 mg/kg, iv; assay type: ADME, organism-based; design: dose 0.5 mg/kg, route intravenous; details: in vivo
[7] = (§2) Apparent elimination half life in rat at 0.5 mg/kg, iv; assay type: ADME, organism-based; design: dose 0.5 mg/kg, route intravenous; details: in vivo
[8] = AUC in rat at 0.5 mg/kg, iv; assay type: ADME, organism-based; design: dose 0.5 mg/kg, route intravenous; details: plasma
Collagenase 3 = Collagenase 3 (Homo sapiens, UniProt P45452)
Interstitial collagenase = target: T1, Interstitial collagenase (Homo sapiens, UniProt P03956); assay: Inhibition of MMP1
T1 sequence (P03956 whole entry): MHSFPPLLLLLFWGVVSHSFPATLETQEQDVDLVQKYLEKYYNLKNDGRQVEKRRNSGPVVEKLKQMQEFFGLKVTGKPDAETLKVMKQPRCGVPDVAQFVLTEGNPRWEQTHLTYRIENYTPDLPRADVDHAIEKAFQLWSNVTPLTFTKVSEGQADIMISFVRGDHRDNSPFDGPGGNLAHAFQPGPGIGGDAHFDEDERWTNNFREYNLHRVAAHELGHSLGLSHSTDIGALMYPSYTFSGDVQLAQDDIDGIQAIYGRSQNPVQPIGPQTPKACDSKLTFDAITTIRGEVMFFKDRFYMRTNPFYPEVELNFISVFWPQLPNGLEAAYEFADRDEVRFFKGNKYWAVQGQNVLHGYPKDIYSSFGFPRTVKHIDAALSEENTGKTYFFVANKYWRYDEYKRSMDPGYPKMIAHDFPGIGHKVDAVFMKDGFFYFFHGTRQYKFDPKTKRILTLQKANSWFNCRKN

Stromelysin-1 = Stromelysin-1 (Homo sapiens, UniProt P08254); assay: Inhibition of MMP3
Rattus norvegicus [9] = assay: as §1; assay type: ADME, organism-based; design: dose 0.5 mg/kg, route intravenous; details: in vivo
Rattus norvegicus [10] = assay: as §2; assay type: ADME, organism-based; design: dose 0.5 mg/kg, route intravenous; details: in vivo

Matrix metalloproteinase-9, sequence (P14780 whole entry): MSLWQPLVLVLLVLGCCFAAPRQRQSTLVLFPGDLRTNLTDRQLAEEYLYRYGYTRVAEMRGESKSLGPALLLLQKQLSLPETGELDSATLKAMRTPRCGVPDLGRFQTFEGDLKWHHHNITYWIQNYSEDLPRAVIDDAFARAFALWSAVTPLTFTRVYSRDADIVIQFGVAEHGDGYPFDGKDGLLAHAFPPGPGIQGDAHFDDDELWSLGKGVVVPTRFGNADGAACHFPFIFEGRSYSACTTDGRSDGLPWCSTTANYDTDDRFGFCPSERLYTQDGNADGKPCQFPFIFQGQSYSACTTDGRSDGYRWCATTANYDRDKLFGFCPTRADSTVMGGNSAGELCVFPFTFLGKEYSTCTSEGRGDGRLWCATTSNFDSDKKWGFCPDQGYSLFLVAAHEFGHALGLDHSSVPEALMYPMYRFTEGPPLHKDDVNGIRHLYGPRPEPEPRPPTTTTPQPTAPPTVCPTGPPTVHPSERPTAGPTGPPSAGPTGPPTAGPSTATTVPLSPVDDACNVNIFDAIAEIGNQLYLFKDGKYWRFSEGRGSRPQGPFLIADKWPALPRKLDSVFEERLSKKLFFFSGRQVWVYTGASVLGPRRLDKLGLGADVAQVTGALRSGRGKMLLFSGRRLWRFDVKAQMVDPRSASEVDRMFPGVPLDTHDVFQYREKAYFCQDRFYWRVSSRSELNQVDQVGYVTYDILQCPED
72 kDa type IV collagenase, sequence (P08253 whole entry): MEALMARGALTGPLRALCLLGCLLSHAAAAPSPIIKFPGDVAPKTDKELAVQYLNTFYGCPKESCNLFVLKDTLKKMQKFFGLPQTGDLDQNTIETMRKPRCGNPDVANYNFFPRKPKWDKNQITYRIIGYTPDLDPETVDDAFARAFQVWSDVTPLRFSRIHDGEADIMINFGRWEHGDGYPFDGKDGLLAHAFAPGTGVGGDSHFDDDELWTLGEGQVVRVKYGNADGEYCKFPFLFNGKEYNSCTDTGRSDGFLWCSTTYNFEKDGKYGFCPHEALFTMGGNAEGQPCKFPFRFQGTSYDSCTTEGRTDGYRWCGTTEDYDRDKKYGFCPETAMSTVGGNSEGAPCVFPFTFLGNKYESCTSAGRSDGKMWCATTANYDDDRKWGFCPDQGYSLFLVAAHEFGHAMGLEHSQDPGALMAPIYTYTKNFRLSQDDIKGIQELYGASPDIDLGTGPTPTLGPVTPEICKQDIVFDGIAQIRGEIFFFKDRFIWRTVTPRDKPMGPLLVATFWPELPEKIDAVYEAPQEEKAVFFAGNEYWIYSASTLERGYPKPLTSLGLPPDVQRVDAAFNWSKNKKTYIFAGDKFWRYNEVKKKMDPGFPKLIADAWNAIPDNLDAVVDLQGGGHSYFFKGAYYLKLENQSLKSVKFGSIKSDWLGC
Stromelysin-1, sequence (P08254 whole entry): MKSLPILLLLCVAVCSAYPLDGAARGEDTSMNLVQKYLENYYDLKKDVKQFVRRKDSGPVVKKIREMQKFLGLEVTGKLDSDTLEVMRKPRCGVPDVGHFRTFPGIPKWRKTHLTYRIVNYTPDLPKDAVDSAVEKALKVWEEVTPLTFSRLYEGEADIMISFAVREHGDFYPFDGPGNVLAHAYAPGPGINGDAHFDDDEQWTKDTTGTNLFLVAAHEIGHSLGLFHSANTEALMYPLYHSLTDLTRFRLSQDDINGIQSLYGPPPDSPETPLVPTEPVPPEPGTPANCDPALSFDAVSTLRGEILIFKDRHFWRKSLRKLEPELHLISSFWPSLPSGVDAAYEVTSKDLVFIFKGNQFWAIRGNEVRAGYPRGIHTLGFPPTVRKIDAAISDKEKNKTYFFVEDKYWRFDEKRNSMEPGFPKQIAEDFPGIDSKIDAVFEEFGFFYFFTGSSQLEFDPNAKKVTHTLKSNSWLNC

Row | IC50 [1] [nM] | Compound | also measured
1 | 556 | O=C(O)C(CN1C(=O)c2ccccc2C1=O)S(=O)(=O)c1ccc(-c2ccc(Cl)cc2)cc1 (centres undefined) | IC50 [2]: 1050 nM
2 | 145 | O=C(O)C(CCCN1C(=O)c2ccccc2C1=O)S(=O)(=O)c1ccc(-c2ccc(Cl)cc2)cc1 (centres undefined) | IC50 [2]: 2120 nM
3 | 4 | COc1cccc(C#Cc2ccc(SC(CCN3C(=O)c4ccccc4C3=O)C(=O)O)cc2)c1 (centres undefined) | –
4 | 0.62 | O=C(NO)C(CCN1C(=O)c2ccccc2C1=O)S(=O)(=O)c1ccc(-c2ccc(Cl)cc2)cc1 (centres undefined) | Vd [3]: 0.1 L/kg; clearance [4]: 2.9 mL/min/kg; half-life [5]: 12 min; C0 [6]: 13.9 µM; half-life [7]: 58.8 min; AUC [8]: 2940 ng·h/mL; IC50 [2]: 1.4 nM
5 | 19 | O=C(O)C(CCN1C(=O)c2ccccc2C1=O)S(=O)(=O)c1ccc(Oc2ccc(OC(F)(F)F)cc2)cc1 (centres undefined) | –
6 | 1.5 | Cc1ccc(C#Cc2ccc([S+]([O-])C(CCN3C(=O)c4ccccc4C3=O)C(=O)O)cc2)cc1 (centres undefined) | –
7 | 54 | COc1ccc(C(=O)Cc2ccc(SC(CCN3C(=O)c4ccccc4C3=O)C(=O)O)cc2)cc1 (centres undefined) | –
8 | 1.1 | CCCc1ccc(C#Cc2ccc(SC(CCN3C(=O)c4ccccc4C3=O)C(=O)O)cc2)cc1 (centres undefined) | –
9 | 3 | N#Cc1ccc(-c2ccc(S(=O)(=O)C(CCN3C(=O)c4ccccc4C3=O)C(=O)O)cc2)cc1 (centres undefined) | –
10 | 6.5 | O=C(O)C(CCN1C(=O)c2ccccc2C1=O)S(=O)(=O)c1ccc(-c2ccc(F)cc2)cc1 (centres undefined) | –
11 | 0.84 | COc1ccc(-c2ccc(S(=O)(=O)C(CCN3C(=O)c4ccccc4C3=O)C(=O)O)cc2)cc1 (centres undefined) | –

Further lines, the compound ahead of its results:

Row | Compound | IC50 [1] [nM] | also measured
12 | Cc1ccc(C#Cc2ccc(SC(CCN3C(=O)c4ccccc4C3=O)C(=O)O)cc2)cc1 (centres undefined) | 33 | –
13 | O=C(O)C(CCN1C(=O)c2ccccc2C1=O)S(=O)(=O)c1ccc(N2CC=C(c3ccc(Cl)cc3)CC2)cc1 (centres undefined) | 12 | –
14 | CCc1ccc(C#Cc2ccc(SC(CCN3C(=O)c4ccccc4C3=O)C(=O)O)cc2)cc1 (centres undefined) | 1.3 | –
15 | CC(CCN1Cc2ccccc2C1)(C(=O)O)S(=O)(=O)c1ccc(-c2ccc(Cl)cc2)cc1 (centres undefined) | 3060 | IC50 [2]: > 10000 nM
16 | CCCC(C(=O)O)S(=O)(=O)c1ccc(-c2ccc(Cl)cc2)cc1 (centres undefined) | 792 | IC50 [2]: 10000 nM
17 | O=C(O)C(CCN1C(=O)c2ccccc2C1=O)Sc1ccc(C#Cc2ccc(OC(F)(F)F)cc2)cc1 (centres undefined) | 1.3 | –
18 | O=C(O)C(CCN1Cc2ccccc2C1=O)S(=O)(=O)c1ccc(-c2ccc(Cl)cc2)cc1 (centres undefined) | 8.6 | IC50 [2]: 96.5 nM
19 | CCCCc1ccc(C#Cc2ccc(SC(CCN3C(=O)c4ccccc4C3=O)C(=O)O)cc2)cc1 (centres undefined) | 2.3 | –
20 | O=C(O)C(CCN1C(=O)c2ccccc2C1=O)Sc1ccc(C#Cc2ccc(Cl)cc2)cc1 (centres undefined) | 1.9 | –
21 | Cc1ccc(C#Cc2ccc(S(=O)(=O)C(CCN3C(=O)c4ccccc4C3=O)C(=O)O)cc2)cc1 (centres undefined) | 0.7 | IC50 (Collagenase 3): 1.4 nM; IC50 (Interstitial collagenase): > 1000 nM; IC50 (Stromelysin-1): 28 nM
22 | CC(CCN1C(=O)c2ccccc2C1=O)(C(=O)O)S(=O)(=O)c1ccc(-c2ccc(Cl)cc2)cc1 (centres undefined) | 52 | –
23 | Cc1ccc(-c2ccc(S(=O)(=O)C(CCN3C(=O)c4ccccc4C3=O)C(=O)O)cc2)cc1 (centres undefined) | 1.2 | –
24 | CC(C)c1ccc(C#Cc2ccc(SC(CCN3C(=O)c4ccccc4C3=O)C(=O)O)cc2)cc1 (centres undefined) | 1.7 | –
25 | O=C(O)C(CCN1C(=O)c2ccccc2C1=O)S(=O)(=O)c1ccc(-c2ccc(Cl)cc2)cc1 (centres undefined) | 1.8 | Vss (Rattus norvegicus [9]): 0.4 L/kg; half-life [5]: 230 min; C0 [6]: 41.4 µM; T1/2 (Rattus norvegicus [10]): 84 min; AUC [8]: 18200 ng·h/mL
26 | O=C(O)C(CCSc1ccccc1)S(=O)(=O)c1ccc(-c2ccc(Cl)cc2)cc1 (centres undefined) | 295 | IC50 [2]: > 10000 nM
27 | CC(C)c1ccc(-c2ccc(S(=O)(=O)C(CCN3C(=O)c4ccccc4C3=O)C(=O)O)cc2)cc1 (centres undefined) | 0.98 | –
28 | CSc1ccc(-c2ccc(S(=O)(=O)C(CCN3C(=O)c4ccccc4C3=O)C(=O)O)cc2)cc1 (centres undefined) | 0.74 | –
29 | N#Cc1ccc(N2CCN(c3ccc(S(=O)(=O)C(CCN4C(=O)c5ccccc5C4=O)C(=O)O)cc3)CC2)cc1 (centres undefined) | 6.8 | –
30 | O=C(O)C(CCN1C(=O)c2ccccc2C1=O)S(=O)(=O)c1ccc(-c2nc3ccc(F)cc3[nH]2)cc1 (centres undefined) | 0.7 | IC50 (Collagenase 3): 0.8 nM; IC50 (Interstitial collagenase): > 1000 nM; IC50 (Stromelysin-1): 34 nM
